{"source": "paper PMC10021052", "about": "“Novel multivalent S100A8 inhibitory peptides attenuate tumor progression and metastasis by inhibiting the TLR4-dependent pathway” (Cancer Gene Therapy, 2023)", "key": {"S100A8-TLR4/MD-2 complex": {"tested_on": "S100A8-TLR4/MD-2 complex", "test": "Competitive inhibition of S100A8-TLR4/MD-2 binding (ELISA, S100A8 immobilized; also immunoprecipitation)", "design": "species or system human", "details": "ELISA, peptide3A5 vs peptide #3 (Fig. 3B); divalent vs monomer (Fig. 4A)", "description": "S100A8 recombinant protein was purified as previously described. These proteins were immobilized on Maxisorp plates (Thermo Fisher Scientific, Waltham, MA, USA), followed by blocking with protein-free blocking buffer (Thermo Fisher Scientific). TLR4/MD-2 recombinant proteins with various concentrations of candidate peptides were then added to the indicated S100A8-immobilized ELISA plates for 2 h. The plates were washed, incubated with anti-TLR4 antibody, and HRP-conjugated secondary antibody, followed by the addition of substrate. The reaction was stopped by addition a 2N H2SO4 solution. Absorbance OD450/OD650 was measured using a microplate reader (Thermo Fisher Scientific). Maxisorp plates were also used for peptide coating. After blocking with protein-free blocking buffer, the coated plates were washed, and TLR4/MD-2 recombinant protein (2 µg/ml) was added to each well. The plates were incubated with a TLR4 antibody followed by horseradish peroxidase (HRP)-labeled anti-rabbit IgG. For detection of IL8 and VEGF in culture supernatants, SW480 cells were pretreated with the indicated peptides, and followed by stimulation with S100A8 for 24 h. The amount of interleukin-8 (IL-8) or VEGF in the supernatants were analyzed by ELISA kits (R&D Systems, Mineapolis, MN) according to the manufacturer’s instructions.\nFig. 2 Identification of S100A8 binding sites to human TLR4/MD-2. […] TLR4/MD-2 recombinant proteins were immobilized to the ELISA plate. After blocking, a full length or deletion mutant of S100A8 was added to the plate. The more detailed methods are described in Materials and Methods. […] B A series of overlapping S100A8 synthetic peptides. The TLR4/MD-2 recombinant proteins were added to each well of peptide immobilized plates. The affinity to TLR4/MD-2 was determined. Data are shown as mean ± SD. C The competitive activity was determined using ELISA. Data are shown as mean ± SD. D The TLR4/MD-2 was mixed with S100A8 with/without the indicated peptides, and immunoprecipitated using an anti-TLR4 antibody. TLR4 or S100A8 was visualized. Similar results were obtained in three independent experiments. […] Total RNAs from SW480 cells with/without treatment of the peptide candidates were extracted and qPCR analysis was performed using relevant primer sets and SYBR green. Relative expression levels were compared. […] TEXT PRINTED IN THE PICTURE: (A) Full length: TLR4/MD-2 binding: + | (A) S100A8-ΔC: TLR4/MD-2 binding: − | (A) S100A8-N: TLR4/MD-2 binding: −\nFig. 4 Improvement of competitive inhibition activity by divalent peptide3A5. A The binding capacity was measured at the indicated concentration using an ELISA-based assay. Similar results were obtained in three independent experiments. B SW480 cells were pretreated with 2.5 µM of divalent peptide3A5, and then stimulated with human S100A8 recombinant protein. After 30 min, cell lysates were subjected to western blotting using the indicated antibody. The divalent peptide#3 or peptide3A5 reduced the expression of S100A8-mediated IL-8 (C) and VEGF (D) induction. Total RNAs from SW480 cells with/without treatment of the peptide candidates were extracted and qPCR analysis was performed using relevant primer sets and SYBR green. Relative expression levels were compared. Peptide #3 suppresses S100A8-mediated IL-8(E) and VEGF (F) secretion in SW480 cells."}, "[1]": {"tested_on": "tumor vasculature of SW480 xenograft", "test": "Tumor vasculature and pericyte coverage (CD31, α-SMA) in SW480 tumors", "type": "in vivo, Balb nu/nu mice", "description": "To immunostain tumor vasculatures, the cryo sections (6 µm) obtained from frozen primary tumors, were incubated with anti-CD31 (BD Pharmingen, Cat No. 550274), and/or anti-α-SMA-Cy3 (Sigma-Aldrich, Cat No. C6198) followed by AlexaFlour 488-conjugated rat IgG secondary antibodies (Thermo Fisher Scientific) were used to visualize the signals by a confocal microscopy (LSM-710; Carl Zeiss). DAPI staining was used for nuclear staining. For immunohistochemistry, the paraffin-embedded sections were cut 4 µm thick and then deparaffinized, rehydrated and then treated for antigen retrieval. The sections were incubated with the indicated antibody overnight, followed by incubation with ImmPRESS HRP Reagent (Vector, Newark, CA). ImmPACT DAB (Vector) was used for visualization of the signals. The images were captured by BZ-X800 (Keyence, Osaka, Japan)."}, "SW480 cells": {"tested_on": "SW480 cells", "test": "qPCR, S100A8-mediated IL-8 and VEGF mRNA induction in SW480 cells", "type": "cell-based, human", "details": "qPCR, normalized to β-actin"}, "[2]": {"tested_on": "MC38 colorectal cancer cells", "test": "Tumor suppression in MC38 model", "type": "in vivo, mouse", "details": "with anti-PD-1 antibody, Supplementary Fig. 3B", "from_the_text": "Because S100A8 inhibitory peptides target S100A8-TLR4/MD-2, which plays a role in innate immunity, the complete functional activities of S100A8 inhibitory peptides are expected to be observed in immunocompetent models. To date, syngeneic models are one of the only options to test physiological interactions between tumors and immune cells. […] LLC cells were identified as non-responders to anti-PD-1/programmed death-ligand 1 (PD-L1) therapy. […] We then examined the effect of divalent peptide3A5 in mouse MC38 colorectal cancer cells used as anti-PD-1 responder cells. We previously confirmed that MC38 endogenously expressed TLR4/MD-2 [8]."}}, "note": "“Also recorded” adds a separate entry of the source.", "data": [{"sequence": "FQEFAILVIK [Divalent peptide3A5, divalent peptide of peptide3A5 using Fmoc-Lys (Fmoc)-OH to form two branches]", "values": [{"measurement": "competitive inhibition, potency compared with parent", "setting": "S100A8-TLR4/MD-2 complex", "value": "observed at a lower dose range than the effect of the peptide3A5 monomer"}, {"measurement": "pericyte coverage (α-SMA/CD31)", "setting": "[1]; 5 mg/kg or 10 mg/kg", "value": "significantly increased the pericyte coverage"}, {"measurement": "tumor vasculature", "setting": "[1]; anti-CD31 staining", "value": "significantly diminished"}, {"measurement": "S100A8-mediated VEGF induction (mRNA)", "setting": "SW480 cells", "value": "efficiently inhibited"}, {"measurement": "S100A8-mediated IL-8 induction (mRNA)", "setting": "SW480 cells; *P < 0.05 vs S100A8", "value": "efficiently inhibited"}, {"measurement": "MC38 tumor suppression, combination with anti-PD-1", "setting": "[2]", "value": "significantly improved the efficacy of anti-PD-1 therapy; also recorded: increased the efficacy of anti-PD-1 therapy"}]}]}
